Laboratory results from ChEMBL document CHEMBL4813951 (Eur J Med Chem, 2021).

Key:
Histamine H2 receptor [1] = molecular target: Histamine H2 receptor (Cavia porcellus, UniProt P47747); assay: Agonist activity at guinea pig right atrium histamine H2 receptor assessed as increase in heart rate incubated for 30 mins in presence of cimetidine; type: functional, tissue-based, Right cardiac atrium
Histamine H3 receptor = Histamine H3 receptor (Homo sapiens, UniProt Q9Y5N1); assay: Displacement of [3H]UR-P129 from human histamine H3 receptor expressed in sf9 insect cell membranes co-expressing Galphai2/Gbeta1gamma2 incubated for 60 mins by microbeta scintillation counting method; parameters: species or system Membrane
Histamine H3 receptor, sequence (Q9Y5N1 whole entry): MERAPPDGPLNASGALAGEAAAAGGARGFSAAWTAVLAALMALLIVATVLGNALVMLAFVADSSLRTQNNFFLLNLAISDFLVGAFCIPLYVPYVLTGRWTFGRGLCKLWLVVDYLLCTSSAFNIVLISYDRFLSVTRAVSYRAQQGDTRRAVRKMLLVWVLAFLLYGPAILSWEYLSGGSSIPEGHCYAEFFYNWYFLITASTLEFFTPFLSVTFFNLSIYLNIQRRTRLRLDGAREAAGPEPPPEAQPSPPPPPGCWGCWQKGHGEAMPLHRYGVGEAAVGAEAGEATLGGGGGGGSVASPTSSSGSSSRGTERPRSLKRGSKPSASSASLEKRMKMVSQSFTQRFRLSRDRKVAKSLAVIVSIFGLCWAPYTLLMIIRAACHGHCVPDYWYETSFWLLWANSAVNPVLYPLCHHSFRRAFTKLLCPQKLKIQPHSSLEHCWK

[2] = molecular target: Histamine H2 receptor (Cavia porcellus) (UniProt P47747); assay: Agonist activity at guinea pig right atrium histamine H2 receptor assessed as intrinsic activity incubated for 30 mins in presence of cimetidine relative to histamine; type: functional, tissue-based; conditions: Right cardiac atrium, filed as agonist
Histamine H2 receptor (Cavia porcellus), sequence (P47747 whole entry): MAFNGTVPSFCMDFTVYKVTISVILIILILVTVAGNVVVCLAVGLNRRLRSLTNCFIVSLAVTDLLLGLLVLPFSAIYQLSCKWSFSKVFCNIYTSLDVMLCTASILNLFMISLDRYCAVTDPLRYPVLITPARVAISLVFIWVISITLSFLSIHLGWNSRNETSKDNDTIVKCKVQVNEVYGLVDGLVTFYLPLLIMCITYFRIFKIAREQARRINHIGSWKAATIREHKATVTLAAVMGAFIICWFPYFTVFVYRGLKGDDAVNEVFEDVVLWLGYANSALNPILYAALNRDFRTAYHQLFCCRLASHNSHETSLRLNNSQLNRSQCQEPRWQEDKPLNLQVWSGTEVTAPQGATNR

Histamine H1 receptor = Histamine H1 receptor (Homo sapiens, UniProt P35367); assay: Displacement of [3H]mepyramine from human histamine H1 receptor expressed in sf9 insect cell membranes co-expressing RGS4 incubated for 60 mins by microbeta scintillation counting method; parameters: species or system Membrane
Histamine H1 receptor, sequence (P35367 whole entry): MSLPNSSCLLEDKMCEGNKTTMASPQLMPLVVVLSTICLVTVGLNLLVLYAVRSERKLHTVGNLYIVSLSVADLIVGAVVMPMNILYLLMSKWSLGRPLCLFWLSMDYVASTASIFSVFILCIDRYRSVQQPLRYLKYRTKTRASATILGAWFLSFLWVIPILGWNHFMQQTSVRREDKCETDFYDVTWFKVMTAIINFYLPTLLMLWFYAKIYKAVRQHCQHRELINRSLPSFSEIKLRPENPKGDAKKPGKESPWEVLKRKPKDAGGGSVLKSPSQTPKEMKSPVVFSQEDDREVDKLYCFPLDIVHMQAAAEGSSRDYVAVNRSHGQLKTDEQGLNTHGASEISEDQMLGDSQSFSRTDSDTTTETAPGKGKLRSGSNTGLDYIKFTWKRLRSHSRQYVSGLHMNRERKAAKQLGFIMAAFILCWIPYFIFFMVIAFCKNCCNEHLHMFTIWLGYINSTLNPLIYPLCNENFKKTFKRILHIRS

Histamine H4 receptor = Histamine H4 receptor (Homo sapiens, UniProt Q9H3N8)
Histamine H4 receptor, sequence (Q9H3N8 whole entry): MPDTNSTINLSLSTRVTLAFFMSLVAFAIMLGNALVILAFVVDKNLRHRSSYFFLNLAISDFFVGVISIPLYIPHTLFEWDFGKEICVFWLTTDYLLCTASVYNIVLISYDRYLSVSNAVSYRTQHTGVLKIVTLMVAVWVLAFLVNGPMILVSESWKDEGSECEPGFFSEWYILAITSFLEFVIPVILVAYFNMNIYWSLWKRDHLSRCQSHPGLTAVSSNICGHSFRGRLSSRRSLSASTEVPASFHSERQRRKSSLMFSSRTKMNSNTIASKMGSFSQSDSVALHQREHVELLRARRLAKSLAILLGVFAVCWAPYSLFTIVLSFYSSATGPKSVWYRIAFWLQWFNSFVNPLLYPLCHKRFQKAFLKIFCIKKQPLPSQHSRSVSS

Histamine H2 receptor [3] = molecular target: T1, Histamine H2 receptor (Homo sapiens, UniProt P25021); assay: Displacement of [3H]UR-DE257 from human histamine H2 receptor expressed in sf9 insect cell membranes co-expressing GSalphaS incubated for 60 mins by microbeta scintillation counting method; parameters: species or system Membrane
T1 sequence (P25021 whole entry): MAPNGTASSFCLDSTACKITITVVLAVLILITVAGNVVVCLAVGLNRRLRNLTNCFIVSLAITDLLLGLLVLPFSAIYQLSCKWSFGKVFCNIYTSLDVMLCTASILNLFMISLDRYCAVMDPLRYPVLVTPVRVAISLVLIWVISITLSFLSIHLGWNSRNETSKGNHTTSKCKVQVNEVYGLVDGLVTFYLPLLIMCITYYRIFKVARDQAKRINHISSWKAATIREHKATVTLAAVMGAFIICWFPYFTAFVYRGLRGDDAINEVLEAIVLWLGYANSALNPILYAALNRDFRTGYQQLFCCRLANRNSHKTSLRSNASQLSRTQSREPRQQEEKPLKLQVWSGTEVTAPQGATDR

Histamine H2 receptor [4] = molecular target: T1, Histamine H2 receptor; assay: Agonist activity at human histamine H2 receptor expressed in HEK293T cells co-expressing ELucC by beta arrestin2 recruitment assay; type: functional, cell-based
Histamine H2 receptor [5] = molecular target: T1, Histamine H2 receptor; assay: Agonist activity at human histamine receptor expressed in sf9 insect cell membranes co-exprssing GsalphaS incubated for 90 mins [35S]GTPgammaS binding based microbeta scintillation counting analysis; type: functional, Membrane
Histamine H2 receptor [6] = molecular target: T1, Histamine H2 receptor; assay: Agonist activity at human histamine H2 receptor expressed in sf9 insect cell membranes co-exprssing GsalphaS assessed as intrinsic activity at >=30 uM incubated for 90 mins [35S]GTPgammaS binding based microbeta scintillation counting analysis relative to histamine; type: functional; conditions: Membrane, filed as agonist, dose microM >=30, time 90.0 min
D(3) dopamine receptor [7] = molecular target: T2, D(3) dopamine receptor (Homo sapiens, UniProt P35462); assay: Displacement of [3H]N-methylspiperone from human D3 receptor expressed in HEK293T cells co-expressing CRE-Luc incubated for 60 mins by microbeta scintillation counting method; type: cell-based
T2 sequence (P35462 whole entry): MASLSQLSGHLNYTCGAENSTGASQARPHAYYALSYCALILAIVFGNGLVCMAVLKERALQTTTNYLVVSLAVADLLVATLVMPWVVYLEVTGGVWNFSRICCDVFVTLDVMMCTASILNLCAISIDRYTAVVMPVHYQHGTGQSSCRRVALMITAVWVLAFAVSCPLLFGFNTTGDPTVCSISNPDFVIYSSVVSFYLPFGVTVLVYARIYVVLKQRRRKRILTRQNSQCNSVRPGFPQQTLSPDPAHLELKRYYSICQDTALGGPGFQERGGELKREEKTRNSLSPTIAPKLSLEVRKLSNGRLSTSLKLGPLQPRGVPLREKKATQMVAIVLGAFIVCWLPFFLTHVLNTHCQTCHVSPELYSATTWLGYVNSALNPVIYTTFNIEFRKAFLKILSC

D(3) dopamine receptor [8] = molecular target: T2, D(3) dopamine receptor; assay: Agonist activity at […] expressed in HEK293T cells co-expressing ELucC by beta arrestin2 recruitment assay; type: functional, cell-based

Histamine H2 receptor (Cavia porcellus, UniProt P47747), sequence (P47747 whole entry): as the sequence (P47747 whole entry) above

SMILES	EC50 (Histamine H2 receptor [1])	Ki (Histamine H3 receptor)	Intrinsic activity [2]	Ki (Histamine H1 receptor)	Ki (Histamine H4 receptor)	Ki (Histamine H2 receptor [3])	EC50 (Histamine H2 receptor [4])	EC50 (Histamine H2 receptor [5])	Intrinsic activity (Histamine H2 receptor [6])	Ki (D(3) dopamine receptor [7])	EC50 (D(3) dopamine receptor [8])
Cc1nc(N)sc1CCCN/C(N)=N/C(=O)NCC(c1ccccc1)c1ccccc1	0.174 µM	10 µM	0.76	5.25 µM	4.9 µM	0.0871 µM	–	–	–	–	–
CCCN[C@@H]1CCc2nc(N)sc2C1 [DEXPRAMIPEXOLE]	–	–	–	–	–	13.8 µM	39.8 µM	8.51 µM	–	–	–
Cc1nc(N)sc1CCCN/C(N)=N/C(=O)NCCc1ccccc1	–	–	–	–	14.8 µM	0.158 µM	0.166 µM	0.0447 µM	0.72	–	–
Cc1nc(N)sc1CCCN/C(N)=N/C(=O)NC(C)c1ccccc1F (centres undefined)	0.0123 µM	30.9 µM	0.93	17 µM	12.9 µM	0.0288 µM	–	–	–	–	–
CCCNC(=O)/N=C(\N)NCCCc1sc(N)nc1C	–	44.7 µM	–	28.8 µM	87.1 µM	0.105 µM	0.17 µM	0.178 µM	0.79	–	–
Cc1nc(N)sc1CCCN/C(N)=N/C(=S)NC[C@@H](C)c1ccccc1	0.148 µM	83.2 µM	0.66	52.5 µM	32.4 µM	0.427 µM	–	–	–	–	–
COc1ccc(C(C)NC(=O)/N=C(\N)NCCCc2sc(N)nc2C)cc1 (centres undefined)	0.038 µM	33.1 µM	0.91	5.89 µM	20 µM	0.0372 µM	–	–	–	–	–
Cc1nc(N)sc1CCCN/C(N)=N/C(=S)NC[C@H](C)c1ccccc1	0.49 µM	69.2 µM	0.44	63.1 µM	44.7 µM	1.15 µM	–	–	–	–	–
Cc1nc(N)sc1CCCN/C(N)=N/C(=O)NCC(C)CC1CCCCC1 (centres undefined)	–	7.41 µM	–	3.8 µM	3.72 µM	0.0708 µM	0.302 µM	0.0174 µM	–	0.132 µM	0.302 µM
CCC(NC(=O)/N=C(\N)NCCCc1sc(N)nc1C)c1ccccc1 (centres undefined)	0.0107 µM	21.9 µM	0.93	12.6 µM	11.2 µM	0.0631 µM	–	–	–	–	–
Cc1nc(N)sc1CCCN/C(N)=N/C(=O)NC[C@@H](C)c1ccccc1	0.0129 µM	26.9 µM	0.98	9.55 µM	13.5 µM	0.102 µM	–	–	–	–	–
Cc1nc(N)sc1CCCN/C(N)=N/C(=O)NC(C)c1ccc(Br)cc1 (centres undefined)	0.055 µM	12.9 µM	0.87	2.88 µM	8.13 µM	0.0302 µM	–	–	–	–	–
Cc1nc(N)sc1CCCN/C(N)=N/C(=O)NC1CCCCC1	–	–	–	24.5 µM	31.6 µM	0.17 µM	0.389 µM	0.148 µM	–	–	–
Cc1nc(N)sc1CCCN/C(N)=N/C(=O)Nc1ccccc1	–	–	–	–	22.4 µM	3.16 µM	3.39 µM	0.525 µM	0.59	–	–
Cc1nc(N)sc1CCCN/C(N)=N/C(=O)NC(c1ccccc1)C(F)(F)F (centres undefined)	0.0479 µM	31.6 µM	0.85	53.7 µM	17.4 µM	0.229 µM	–	–	–	–	–
Cc1nc(N)sc1CCCN/C(N)=N/C(=O)NC[C@H](C)c1ccccc1	0.0257 µM	17 µM	0.99	8.71 µM	12 µM	0.1 µM	–	–	–	–	–

SMILES	EC50 (Histamine H2 receptor [1])	Ki (Histamine H3 receptor)	Intrinsic activity [2]	Ki (Histamine H1 receptor)	Ki (Histamine H4 receptor)	Ki (Histamine H2 receptor [3])	EC50 (Histamine H2 receptor [4])	EC50 (Histamine H2 receptor [5])	Intrinsic activity (Histamine H2 receptor [6])	Ki (D(3) dopamine receptor [7])	EC50 (D(3) dopamine receptor [8])
Cc1nc(N)sc1CCCN/C(N)=N/C(=S)NC(c1ccccc1)c1ccccc1	0.0661 µM	43.7 µM	0.67	46.8 µM	23.4 µM	0.603 µM	–	–	–	–	–
Cc1nc(N)sc1CCCN/C(N)=N/C(=O)NCc1ccco1	0.0117 µM	74.1 µM	0.58	24 µM	75.9 µM	0.0105 µM	–	–	–	–	–
Cc1nc(N)sc1CCCN/C(N)=N/C(=O)NC(C)c1ccc(F)cc1 (centres undefined)	0.0234 µM	25.7 µM	0.92	10.2 µM	13.8 µM	0.0316 µM	–	–	–	–	–
Cc1nc(N)sc1CCCN/C(N)=N/C(=O)NC(c1ccccc1)C(C)C (centres undefined)	0.0347 µM	19.1 µM	1.04	24.5 µM	7.94 µM	0.0355 µM	–	–	–	–	–
Cc1nc(N)sc1CCCN/C(N)=N/C(=O)NC(C)c1ccc(Cl)cc1 (centres undefined)	0.0245 µM	17.8 µM	0.93	4.47 µM	8.51 µM	0.0468 µM	–	–	–	–	–
Cc1nc(N)sc1CCCN/C(N)=N/C(=O)NC(C)c1cccc(F)c1 (centres undefined)	0.0263 µM	38.9 µM	–	7.76 µM	13.2 µM	0.00204 µM	0.0646 µM	–	–	0.00871 µM	0.0724 µM
Cc1ccc(CC(C)CNC(=O)/N=C(\N)NCCCc2sc(N)nc2C)cc1 (centres undefined)	–	3.24 µM	–	1.66 µM	3.63 µM	0.0724 µM	0.132 µM	0.0603 µM	–	–	–
Cc1ccc(C(C)NC(=O)/N=C(\N)NCCCc2sc(N)nc2C)cc1 (centres undefined)	0.0224 µM	26.3 µM	0.85	5.13 µM	11.2 µM	0.0309 µM	–	–	–	–	–
Cc1nc(N)sc1CCCN/C(N)=N/C(=O)N[C@@H](C)c1ccccc1	0.0234 µM	33.1 µM	–	21.4 µM	17.8 µM	0.0513 µM	–	–	–	0.0245 µM	0.229 µM
Cc1nc(N)sc1CCCN/C(N)=N/C(=S)N[C@@H](C)c1ccccc1	0.224 µM	81.3 µM	0.65	77.6 µM	55 µM	0.339 µM	–	–	–	–	–
N/C(=N\C(=O)NCCc1ccccc1)Nc1cccc(-c2csc(N)n2)c1	–	–	–	–	30.2 µM	–	–	–	–	–	–
Cc1nc(N)sc1CCCN/C(N)=N/C(=O)NCC(C)CCCc1ccccc1 (centres undefined)	–	2.29 µM	–	7.08 µM	0.776 µM	0.0603 µM	2.51 µM	–	–	–	–
Cc1nc(N)sc1CCCN/C(N)=N/C(=O)NC(C)c1ccc(OC(F)(F)F)cc1 (centres undefined)	0.724 µM	14.5 µM	0.61	21.9 µM	8.13 µM	0.126 µM	–	–	–	–	–
N/C(=N\C(=O)NCc1ccccc1)Nc1cccc(-c2csc(N)n2)c1	–	–	–	–	34.7 µM	–	–	–	–	–	–
Cc1nc(N)sc1CCCN/C(N)=N/C(=O)NC(c1ccccc1)c1ccccc1	0.0398 µM	9.12 µM	–	15.8 µM	6.31 µM	–	–	–	–	–	–
Cc1nc(N)sc1CCCN/C(N)=N/C(=O)NC(C)c1cccs1 (centres undefined)	0.01 µM	58.9 µM	0.88	25.7 µM	30.2 µM	0.0631 µM	–	–	–	–	–
